Marks after values point to notes of the source that are not given here.
Legend:
[1] = test system: metastatic tumors made according to the present disclosure; assay: Oxaliplatin treatment of metastatic tumors versus primary GI tumors and subcutaneous xenografts; type: in vivo
[2] = test system: early stage CCIC colon/intestine and ex-GI xenograft tumors (CCR9/CCL25 axis); assay: CCIC xenograft tumor formation after tail vein injection, CCR9/CCL25 blocked before or with cell injection (Table 2); type: in vivo, NOD/SCID mice
From the text: CCR9 constitutive and inducible knockdown; Snail or CD26 knockdown in CCIC and NOTCH reporter CCIC. The lentiviral vector pEco-CMV-H1-shRNA-GFP encoding a shRNA hairpin sequence (CCR9: 5′-CTTGTACTGGC[…] ID NO:14; Snail: 5′-GAGCTGCAGG[…] ID NO:15; CD26: 5′-CATTCCTACAC[…] ID NO:16) was used for CCR9, Snail or CD26 expression knockdown and the lentiviral vectors pEco-CMV-H1-GFP (GenTarget Inc, San Diego, Calif.) and pEco-CMV-H1-scrambled-shRNA-GFP served as controls. To generate the lentiviral vectors, the above plasmids were transfected into HEK293T cells with the Genetargetlentivirus packaging mix (GenTarget Inc, San Diego, Calif.) according to the manufacturer's protocol. For CCR9 tetracycline inducible knockdown, the same shRNA hairpin sequence against CCR9 gene was inserted into pLenti-H1-shRNA-RSV (GFP-Puro) vector (GenTarget Inc, San Diego, Calif.) and packaged into lentivirus particles, which were used together with another TetR expression lentivirus (RFP-Bsd)(GenTarget Inc, San Diego, Calif.) to infect CCICs. After antibiotic selection and GFP/RFP dual FACS purification, the CCR9 shRNA knockdown can be induced by 1 ug/ml (in vitro) or 1 mg/ml (in vivo) doxycycline. NOTCH signaling reporter CCIC was generated by infecting CCIC with pCignalLenti RBP-Jk Reporter (GFP) ready lentivirus (SABiosciences, Inc.). After infecting CCIC lines with these lentiviral vectors, stable knockdown clones were obtained through antibiotic selection of blasticidin (Invitrogen, Carlsbad, Calif.). The efficiency of the CCR9, SNAIL or CD26 knockdown in CCIC was verified by Western Blotting and efficiency of NOTCH signaling reporter was tested by 2 μg/ml Jagged-1 (AnaSpec) treatment following by GFP-FACS sorting.
CCIC xenograft tumor formation in colon/intestine and other organs. 0.5-1×10^6CCIC or common CRC cells were injected into 6-8 weeks old non-obese diabetic/severe combined immunodeficient (NOD/SCID) mice (Jackson Laboratory, Bar Harbor, Me.) by tail vein injection. Tumor incidence was monitored 2-3× weekly. When mice became moribund, they were sacrificed immediately, necropsy performed and tumors harvested using a dissecting microscope. For ex vivo GFP imaging of tumor tissues, lentiviral infection by the pEco-CMV-GFP vector was used to generate CCIC lines that stably express GFP and maintained in puromycin selection. 10^6 of these fluorescent CCIC were systemically injected as described above. Intestinal tissues harvested at the time of sacrifice were analyzed for GFP expression with Cri Maestro Imaging Systems (Cambridge Research & Instrumentation Inc, Woburn, Mass.).
For the CCR9 study, native CCICs, CCICs with CCR9, Snail (SNAL1) or CD26 knockdown (or commonly used CRC cell lines such as HCT116, etc. as indicated), CCR9+ CCIC with CCR9 inducible knockdown were intravenously inoculated into the 6-8 weeks old NOD/SCID mice by tail vein. Mice that became moribund were sacrificed immediately, whereas the rest were closely monitored for 16 weeks before sacrifice. To test whether CCL25 antibody could inhibit the CCL25-CCR9 GI homing mechanism in vivo, a dose of 100 ug goat anti-mouse CCL25 neutralization antibody (R&D systems, Cat #AF-481-NA), was IP administrated to each mouse twice (the same dose and schedule as used in). As a negative control, a dose of 100 ug Goat IgG (R&D systems) was administered to each mouse in the control group. Then 1×10^6CCIC were injected into the mice 8 hours after or with the injection of the antibody. To test whether extra-GI metastasis is induced by CCR9/CCL25 signaling blockade, CCL25 neutralization antibody with the same dose was IP administrated to each mouse every three days or 1 mg/ml doxycycline in drinking water was given to mice every other days starting from the fourth week after CCIC inoculation until mice get moribund.

[3] = mice tail vein injected with early stage CCIC, blockade before/concurrent with injection or constitutive shRNA KD

Molecule | chemoresistance of metastatic tumors relative to primary GI tumors and subcutaneous xenografts [1] | overall survival of mice vs. control ([2]; mice systemically injected with CCIC, Kaplan-Meier, FIG. 6C) | Ex-GI Tumor Incidence (%) [2, 3] | GI Tumor Incidence (%) [2, 3] | Mean Ex-GI Tumors/Mouse [2, 3] | Mean GI Tumors/mouse [2, 3] | Mean Progression (weeks) ([2]; mice tail vein injected with early stage CCIC, time until moribund, blockade before/concurrent with injection or constitutive shRNA KD)
O=C1[O][Pt]2([NH][C@@H]3CCCC[C@H]3[NH]2)[O]C1=O [oxaiplatin] | more chemoresistant |  |  |  |  |  | 
CCR9 KD: constitutive lentiviral shRNA against CCR9 (hairpin 5'-CTTGTACTGGCTCGTGTTCAT, SEQ ID NO:14) expressed in CCIC |  | significantly longer | 85.7% | 14.3* % | 105.0* | 0.3* | 13.0* weeks

Reference: US9681647B2, “Mammal with an orthotopic tumor capable of metastasis, a method of making and a method of using” (Cornell University, priority 2012, dated 2017)
